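These data come from cells grown in 96-well plates and exposed to compound for 48 hours at five concentrations. TGI: total growth inhibition.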
What was measured:
Experiment in all cases: DTP human tumour cell line panel, 48 h
CAKI-1 renal = system: CAKI-1 renal
NCI-H460 lung = system: NCI-H460 lung
SR leukemia = system: SR leukemia
MCF7 breast = system: MCF7 breast
MDA-MB-231 breast = system: MDA-MB-231 breast
HL-60(TB) leukemia = system: HL-60(TB) leukemia
HCT-116 colon = system: HCT-116 colon
OVCAR-4 ovarian = system: OVCAR-4 ovarian
MOLT-4 leukemia = system: MOLT-4 leukemia
HCC-2998 colon = system: HCC-2998 colon
PC-3 prostate = system: PC-3 prostate
HT29 colon = system: HT29 colon
OVCAR-3 ovarian = system: OVCAR-3 ovarian
OVCAR-5 ovarian = system: OVCAR-5 ovarian
SF-295 CNS = system: SF-295 CNS
SK-MEL-5 melanoma = system: SK-MEL-5 melanoma
OVCAR-8 ovarian = system: OVCAR-8 ovarian
SNB-19 CNS = system: SNB-19 CNS
HOP-62 NSCLC = system: HOP-62 NSCLC
SNB-75 CNS = system: SNB-75 CNS
DU-145 prostate = system: DU-145 prostate
SN12C renal = system: SN12C renal
HOP-92 NSCLC = system: HOP-92 NSCLC
HCT-15 colon = system: HCT-15 colon
CCRF-CEM leukemia = system: CCRF-CEM leukemia
UACC-62 melanoma = system: UACC-62 melanoma
SK-OV-3 ovarian = system: SK-OV-3 ovarian
LOX IMVI melanoma = system: LOX IMVI melanoma
BT-549 breast = system: BT-549 breast
COLO 205 colon = system: COLO 205 colon
SK-MEL-28 melanoma = system: SK-MEL-28 melanoma
786-0 renal = system: 786-0 renal
SW-620 colon = system: SW-620 colon
RXF 393 renal = system: RXF 393 renal
TK-10 renal = system: TK-10 renal
A498 renal = system: A498 renal
NCI-H23 lung = system: NCI-H23 lung
NCI-H226 lung = system: NCI-H226 lung
UACC-257 melanoma = system: UACC-257 melanoma
SF-268 CNS = system: SF-268 CNS
ACHN renal = system: ACHN renal
MDA-N = system: MDA-N
NCI-H522 lung = system: NCI-H522 lung
U251 CNS = system: U251 CNS
SK-MEL-2 melanoma = system: SK-MEL-2 melanoma
T-47D breast = system: T-47D breast
EKVX NSCLC = system: EKVX NSCLC
SF-539 CNS = system: SF-539 CNS
IGROV1 ovarian = system: IGROV1 ovarian
K-562 leukemia = system: K-562 leukemia
MDA-MB-435 = system: MDA-MB-435
M14 melanoma = system: M14 melanoma
UO-31 renal = system: UO-31 renal
NCI/ADR-RES ovarian = system: NCI/ADR-RES ovarian
HS 578T breast = system: HS 578T breast
A549 NSCLC = system: A549 NSCLC
RPMI-8226 leukemia = system: RPMI-8226 leukemia
MALME-3M melanoma = system: MALME-3M melanoma
KM12 colon = system: KM12 colon

Work on `CCCCCCCCCCCC(=O)NCc1ccc(OC(=O)CCCCCCCCCCC)c(OC)c1` yielded a TGI (CAKI-1 renal) greater than 100 µM, a TGI (NCI-H460 lung) greater than 100 µM and a TGI (SR leukemia) greater than 92.8 µM. For the same compound, the TGI (MCF7 breast) was greater than 100 µM, the TGI (MDA-MB-231 breast) was greater than 100 µM and the TGI (HL-60(TB) leukemia) was 37.8 µM. For the same compound, the TGI (HCT-116 colon) was greater than 100 µM, the TGI (OVCAR-4 ovarian) was greater than 100 µM and the TGI (MOLT-4 leukemia) was greater than 100 µM. The TGI (HCC-2998 colon) was greater than 100 µM, the TGI (PC-3 prostate) was 97.9 µM and the TGI (HT29 colon) was greater than 100 µM. For the same compound, the TGI (OVCAR-3 ovarian) was greater than 100 µM, the TGI (OVCAR-5 ovarian) was greater than 100 µM and the TGI (SF-295 CNS) was greater than 100 µM. For the same compound, the TGI (SK-MEL-5 melanoma) was greater than 100 µM, the TGI (OVCAR-8 ovarian) was greater than 100 µM and the TGI (SNB-19 CNS) was greater than 100 µM. The TGI (HOP-62 NSCLC) was greater than 100 µM, the TGI (SNB-75 CNS) was greater than 100 µM and the TGI (DU-145 prostate) was greater than 100 µM. It also gave a TGI (SN12C renal) greater than 100 µM, a TGI (HOP-92 NSCLC) greater than 100 µM and a TGI (HCT-15 colon) greater than 100 µM. The TGI (CCRF-CEM leukemia) was 11.6 µM, the TGI (UACC-62 melanoma) was greater than 100 µM and the TGI (SK-OV-3 ovarian) was greater than 100 µM. For the same compound, the TGI (LOX IMVI melanoma) was greater than 100 µM, the TGI (BT-549 breast) was greater than 100 µM and the TGI (COLO 205 colon) was greater than 72.4 µM. It also gave a TGI (SK-MEL-28 melanoma) greater than 100 µM, a TGI (786-0 renal) greater than 100 µM and a TGI (SW-620 colon) greater than 100 µM. The TGI (RXF 393 renal) was greater than 100 µM, the TGI (TK-10 renal) was greater than 100 µM and the TGI (A498 renal) was greater than 100 µM. It also gave a TGI (NCI-H23 lung) greater than 100 µM, a TGI (NCI-H226 lung) greater than 100 µM and a TGI (UACC-257 melanoma) greater than 100 µM. For the same compound, the TGI (SF-268 CNS) was greater than 100 µM, the TGI (ACHN renal) was greater than 100 µM and the TGI (MDA-N) was greater than 100 µM. For the same compound, the TGI (NCI-H522 lung) was 12.2 µM, the TGI (U251 CNS) was greater than 100 µM and the TGI (SK-MEL-2 melanoma) was greater than 100 µM. For the same compound, the TGI (T-47D breast) was greater than 100 µM, the TGI (EKVX NSCLC) was greater than 100 µM and the TGI (SF-539 CNS) was 16.7 µM. For the same compound, the TGI (IGROV1 ovarian) was greater than 57.3 µM, the TGI (K-562 leukemia) was greater than 100 µM and the TGI (MDA-MB-435) was greater than 100 µM. The TGI (M14 melanoma) was greater than 100 µM, the TGI (UO-31 renal) was greater than 100 µM and the TGI (NCI/ADR-RES ovarian) was greater than 100 µM. It also gave a TGI (HS 578T breast) greater than 100 µM, a TGI (A549 NSCLC) greater than 100 µM and a TGI (RPMI-8226 leukemia) greater than 100 µM. For the same compound, the TGI (MALME-3M melanoma) was greater than 100 µM and the TGI (KM12 colon) was greater than 100 µM.
For `OC(COc1cccc2ccccc12)CN1CCOCC1` (stereo not drawn), the TGI (CAKI-1 renal) was greater than 100 µM, the TGI (NCI-H460 lung) was greater than 100 µM and the TGI (SR leukemia) was greater than 100 µM. The TGI (MCF7 breast) was greater than 100 µM, the TGI (MDA-MB-231 breast) was greater than 100 µM and the TGI (HL-60(TB) leukemia) was greater than 100 µM. For the same compound, the TGI (HCT-116 colon) was greater than 100 µM, the TGI (OVCAR-4 ovarian) was greater than 100 µM and the TGI (MOLT-4 leukemia) was greater than 100 µM. For the same compound, the TGI (HCC-2998 colon) was greater than 100 µM, the TGI (PC-3 prostate) was greater than 100 µM and the TGI (HT29 colon) was greater than 100 µM. The TGI (OVCAR-3 ovarian) was greater than 100 µM, the TGI (OVCAR-5 ovarian) was greater than 100 µM and the TGI (SF-295 CNS) was greater than 100 µM. It also gave a TGI (SK-MEL-5 melanoma) greater than 100 µM, a TGI (OVCAR-8 ovarian) greater than 100 µM and a TGI (SNB-19 CNS) greater than 100 µM. The TGI (HOP-62 NSCLC) was greater than 100 µM, the TGI (SNB-75 CNS) was greater than 100 µM and the TGI (DU-145 prostate) was greater than 100 µM. The TGI (SN12C renal) was greater than 100 µM, the TGI (HOP-92 NSCLC) was 98.9 µM and the TGI (HCT-15 colon) was greater than 100 µM. It also gave a TGI (CCRF-CEM leukemia) greater than 100 µM, a TGI (UACC-62 melanoma) greater than 100 µM and a TGI (SK-OV-3 ovarian) greater than 100 µM. It also gave a TGI (LOX IMVI melanoma) greater than 100 µM, a TGI (BT-549 breast) greater than 100 µM and a TGI (COLO 205 colon) greater than 100 µM. The TGI (SK-MEL-28 melanoma) was greater than 100 µM, the TGI (786-0 renal) was greater than 100 µM and the TGI (SW-620 colon) was greater than 100 µM. It also gave a TGI (RXF 393 renal) greater than 100 µM, a TGI (TK-10 renal) greater than 100 µM and a TGI (A498 renal) greater than 100 µM. It also gave a TGI (NCI-H23 lung) greater than 100 µM, a TGI (NCI-H226 lung) greater than 100 µM and a TGI (UACC-257 melanoma) greater than 100 µM. It also gave a TGI (SF-268 CNS) greater than 100 µM, a TGI (ACHN renal) greater than 100 µM and a TGI (MDA-N) greater than 100 µM. For the same compound, the TGI (NCI-H522 lung) was greater than 100 µM, the TGI (U251 CNS) was greater than 100 µM and the TGI (SK-MEL-2 melanoma) was greater than 100 µM. It also gave a TGI (T-47D breast) greater than 100 µM, a TGI (EKVX NSCLC) greater than 100 µM and a TGI (SF-539 CNS) greater than 100 µM. The TGI (IGROV1 ovarian) was greater than 100 µM, the TGI (K-562 leukemia) was greater than 100 µM and the TGI (MDA-MB-435) was greater than 100 µM. For the same compound, the TGI (M14 melanoma) was greater than 100 µM, the TGI (UO-31 renal) was greater than 100 µM and the TGI (NCI/ADR-RES ovarian) was greater than 100 µM. The TGI (HS 578T breast) was greater than 100 µM, the TGI (A549 NSCLC) was greater than 100 µM and the TGI (RPMI-8226 leukemia) was greater than 100 µM. For the same compound, the TGI (MALME-3M melanoma) was greater than 100 µM and the TGI (KM12 colon) was greater than 100 µM.

Source: PubChem BioAssay (NCI)
